Among the data in patent US20110086759A1, “CHEMICAL COMPOUNDS” (SYNGENTA CROP PROTECTION, INC., priority 2007, published 2011) are pest or weed control values, retold here.

Molecules are shown by their SMILES.

Format in all cases: in vivo
The test system of assay [1] is Setaria faberi (SETFA). Nature of the assay: Pre-emergence biological efficacy, glasshouse pot test. As to conditions: 312 h, pre-emergence, rate 1,000 g/ha, evaluated after 13 days (100=total damage to plant; 0=no damage), read-out: Percentage damage caused to weed species, SETFA. In outline:
(§1)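 One day after sowing in standard soil, pots were sprayed with compound in acetone/water (50:50) with 0.5% Tween 20, at 1000 or 250 g/ha. Plants grew at 24/16° C day/night, 14 h light, 65% humidity. Damage was scored after 13 days (0 = none, 100 = total).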

In assay [2] the test system is Ipomea hederaceae (IPOHE). Described as above. The settings on record: Ipomoea hederacea, 312 h; pre-emergence, rate 1,000 g/ha, evaluated after 13 days (100=total damage to plant; 0=no damage); read-out: Percentage damage caused to weed species, IPOHE. In outline:
as §1

Assay [3] relates to Alopecurus myosuroides (ALOMY). The description is as above. The settings on record: 312 h, pre-emergence, rate 1,000 g/ha, evaluated after 13 days (100=total damage to plant; 0=no damage), read-out: Percentage damage caused to weed species, ALOMY. In outline:
as §1

Assay [4] has as its system Echinochloa crus-galli (ECHCG). The assay is described as above. The settings on record: 312 h, pre-emergence, rate 1,000 g/ha, evaluated after 13 days (100=total damage to plant; 0=no damage), read-out: Percentage damage caused to weed species, ECHCG. In outline: as §1
The subject of assay [5] is Amaranthus retoflexus (AMARE). The assay is described as above. The settings on record: Amaranthus retroflexus, 312 h; pre-emergence, rate 1,000 g/ha, evaluated after 13 days (100=total damage to plant; 0=no damage); read-out: Percentage damage caused to weed species, AMARE. In outline:
as §1

The subject of assay [6] is Solanum nigrum (SOLNI). Described as above. As to conditions: 312 h, pre-emergence, rate 1,000 g/ha, evaluated after 13 days (100=total damage to plant; 0=no damage), read-out: Percentage damage caused to weed species, SOLNI. The procedure, abridged: as §1
Assay [7] concerns Setaria faberi (SETFA). Nature of the assay: Post-emergence biological efficacy, glasshouse pot test. As to conditions: 312 h, Rate 1,000 g/ha, post-emergence spray, evaluated after 13 days (100=total damage to plant; 0=no damage to plant), read-out: Percentage damage caused to weed species, post-emergence, SETFA. The procedure, abridged: (§2)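 Pot-grown weeds were sprayed 8 days after sowing with test compound in acetone/water (50:50) with 0.5% Tween 20 at 1000 or 250 g/ha. Glasshouse at 24/16° C day/night, 14 h light, 65% humidity. Damage scored 0-100 (100 = total damage) after 13 days.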

Assay [8] concerns Ipomea hederaceae (IPOHE). The assay is described as above. As to conditions: Ipomoea hederacea, 312 h; Rate 1,000 g/ha; post-emergence spray; evaluated after 13 days (100=total damage to plant; 0=no damage to plant); read-out: Percentage damage caused to weed species, post-emergence, IPOHE. The procedure, abridged:
as §2

Assay [9] has as its system Alopecurus myosuroides (ALOMY). The assay is described as above. As to conditions: 312 h, Rate 1,000 g/ha, post-emergence spray, evaluated after 13 days (100=total damage to plant; 0=no damage to plant), read-out: Percentage damage caused to weed species, post-emergence, ALOMY. In outline: as §2
The test system of assay [10] is Echinochloa crus-galli (ECHCG). The assay is described as above. The settings on record: 312 h, Rate 1,000 g/ha, post-emergence spray, evaluated after 13 days (100=total damage to plant; 0=no damage to plant), read-out: Percentage damage caused to weed species, post-emergence, ECHCG. The procedure, abridged: as §2
Assay [11] concerns Amaranthus retoflexus (AMARE). The assay is described as above. The settings on record: Amaranthus retroflexus, 312 h; Rate 1,000 g/ha; post-emergence spray; evaluated after 13 days (100=total damage to plant; 0=no damage to plant); read-out: Percentage damage caused to weed species, post-emergence, AMARE. In outline:
as §2

Assay [12] relates to Solanum nigrum (SOLNI). Described as above. As to conditions: 312 h, Rate 1,000 g/ha, post-emergence spray, evaluated after 13 days (100=total damage to plant; 0=no damage to plant), read-out: Percentage damage caused to weed species, post-emergence, SOLNI. In outline: as §2

On to `CCCCN(Cc1ccccc1)c1nc(C2CC2)nc(C(=O)OC)c1Cl` [Compound 147-60, 4-(N-But-1-yl-N-phenylmethyl-amino)-5-chloro-2-cyclopropyl-6-methoxycarbonyl-pyrimidine], for which the pest or weed control at 1000 g/ha in assay [1] amounted to 0%; in assay [2], 30%; in assay [3] it was 40%; in assay [4], 20%; in assay [5], 100%; in assay [6], 80%. Besides, the pest or weed control at 1000 g/ha in assay [7] stood at 40%; in assay [8], 80%; in assay [9] it was 10%; in assay [10], 10%; in assay [11], 70%; in [12], 80%.

In the case of `CCC(C)N(Cc1ccccc1)c1nc(C2CC2)nc(C(=O)OC)c1Cl` (stereo not drawn) [Compound 148-60, 4-(N-But-2-yl-N-phenylmethyl-amino)-5-chloro-2-cyclopropyl-6-methoxycarbonyl-pyrimidine], the pest or weed control at 1000 g/ha in assay [1] came out at 0%; in assay [2], 30%; in [3], 0%; in assay [4], 0%; in assay [5], 80%; in [6], 80%. The pest or weed control at 1000 g/ha in [7] stood at 40%; in assay [8], 90%; in assay [9], 10%; in [10], 0%; in [11], 100%; in assay [12], 80%.

With `COC(=O)c1nc(C2CC2)nc(N(Cc2ccccc2)C[Si](C)(C)C)c1Cl` [Compound 150-60, 5-Chloro-2-cyclopropyl-6-methoxycarbonyl-4-(N-phenylmethyl-N-trimethylsilylmethyl-amino)pyrimidine], the pest or weed control at 1000 g/ha was 20% in assay [1]; 90% in [2]; 20% in assay [3]; 40% in assay [4]; 80% in assay [5]; 70% in assay [6]. For the same compound, the pest or weed control at 1000 g/ha in [7] came to 70%; in assay [8] it was 90%; in assay [9] it was 40%; in assay [10] it was 60%; in assay [11] it was 100%; in assay [12], 90%.

As to `C=CCN(Cc1ccccc1)c1nc(C2CC2)nc(C(=O)OC)c1Cl` [Compound 151-60, 5-Chloro-2-cyclopropyl-6-methoxycarbonyl-4-(N-phenylmethyl-N-prop-2-en-1-yl-amino)-pyrimidine], the pest or weed control at 1000 g/ha in assay [1] is 10%; in assay [2], 60%; in assay [3] it was 20%; in [4] it was 20%; in assay [5] it was 40%; in [6] it was 10%. Moreover, the pest or weed control at 1000 g/ha in assay [7] is 80%; in assay [8], 70%; in [9] it was 20%; in [10], 40%; in assay [11], 100%; in assay [12], 80%.

As for `C=CCN(Cc1ccccc1F)c1nc(C2CC2)nc(C(=O)OC)c1Cl` [Compound 151-64, 5-Chloro-2-cyclo-propyl-4-[N(2-fluorophenyl)methyl-N-prop-2-enyl-amino]-6-methoxy-carbonylpyrimidine], the pest or weed control at 1000 g/ha worked out at 0% in assay [1]; 30% in assay [2]; 0% in [3]; 0% in assay [4]; 30% in [5]; 0% in [6]. Also, the pest or weed control at 1000 g/ha in assay [7] turned out to be 90%; in [8], 100%; in assay [9], 10%; in assay [10], 40%; in assay [11] it was 100%; in assay [12], 90%.

For `C=CCN(Cc1ccc(F)cc1)c1nc(C2CC2)nc(C(=O)OC)c1Cl` [Compound 151-66, 5-Chloro-2-cyclopropyl-4-[N-(4-fluorophenylmethyl)-N-prop-2-en-1-yl-amino]-6-methoxy-carbonylpyrimidine], the pest or weed control at 1000 g/ha in [1] is 0%; in [2] it was 50%; in assay [3], 0%; in [4], 0%; in assay [5], 40%; in assay [6], 0%. Further, the pest or weed control at 1000 g/ha stood at 50% in assay [7]; 70% in assay [8]; 20% in assay [9]; 30% in assay [10]; 80% in assay [11]; 80% in [12].

Regarding `C=CCN(Cc1cccc(OC)c1OC)c1nc(C2CC2)nc(C(=O)OC)c1Cl` [Compound 151-109, 5-Chloro-2-cyclopropyl-4-[N-(2,3-dimethoxyphenyl-methyl)-N-prop-2-en-1-yl-amino]-6-methoxycarbonyl-pyrimidine], the pest or weed control at 1000 g/ha in assay [1] was found to be 10%; in assay [2], 20%; in assay [3], 0%; in assay [4] it was 0%; in [5], 60%; in [6] it was 20%. Moreover, the pest or weed control at 1000 g/ha was determined as 0% in assay [7]; 30% in assay [8]; 0% in [9]; 0% in [10]; 30% in assay [11]; 30% in assay [12].

Regarding `C=CCN(Cc1cc(Cl)ccc1OC)c1nc(C2CC2)nc(C(=O)OC)c1Cl` [Compound 151-117, 5-Chloro-4-[N-(5-chloro-2-methoxyphenylmeth-yl)-N-prop-2-en-1-yl-amino]-2-cyclopropyl-6-methoxycarbonyl-pyrimidine], the pest or weed control at 1000 g/ha in assay [1] amounted to 10%; in assay [2] it was 30%; in [3] it was 10%; in [4], 0%; in [5], 40%; in assay [6], 30%. Also, the pest or weed control at 1000 g/ha was 20% in assay [7]; 60% in [8]; 0% in assay [9]; 0% in assay [10]; 30% in assay [11]; 30% in [12].
